Series [1] has as its target T1, Mitogen-activated protein kinase kinase kinase kinase 3 (Homo sapiens, UniProt Q8IVH8).
T1 sequence (Q8IVH8 whole entry): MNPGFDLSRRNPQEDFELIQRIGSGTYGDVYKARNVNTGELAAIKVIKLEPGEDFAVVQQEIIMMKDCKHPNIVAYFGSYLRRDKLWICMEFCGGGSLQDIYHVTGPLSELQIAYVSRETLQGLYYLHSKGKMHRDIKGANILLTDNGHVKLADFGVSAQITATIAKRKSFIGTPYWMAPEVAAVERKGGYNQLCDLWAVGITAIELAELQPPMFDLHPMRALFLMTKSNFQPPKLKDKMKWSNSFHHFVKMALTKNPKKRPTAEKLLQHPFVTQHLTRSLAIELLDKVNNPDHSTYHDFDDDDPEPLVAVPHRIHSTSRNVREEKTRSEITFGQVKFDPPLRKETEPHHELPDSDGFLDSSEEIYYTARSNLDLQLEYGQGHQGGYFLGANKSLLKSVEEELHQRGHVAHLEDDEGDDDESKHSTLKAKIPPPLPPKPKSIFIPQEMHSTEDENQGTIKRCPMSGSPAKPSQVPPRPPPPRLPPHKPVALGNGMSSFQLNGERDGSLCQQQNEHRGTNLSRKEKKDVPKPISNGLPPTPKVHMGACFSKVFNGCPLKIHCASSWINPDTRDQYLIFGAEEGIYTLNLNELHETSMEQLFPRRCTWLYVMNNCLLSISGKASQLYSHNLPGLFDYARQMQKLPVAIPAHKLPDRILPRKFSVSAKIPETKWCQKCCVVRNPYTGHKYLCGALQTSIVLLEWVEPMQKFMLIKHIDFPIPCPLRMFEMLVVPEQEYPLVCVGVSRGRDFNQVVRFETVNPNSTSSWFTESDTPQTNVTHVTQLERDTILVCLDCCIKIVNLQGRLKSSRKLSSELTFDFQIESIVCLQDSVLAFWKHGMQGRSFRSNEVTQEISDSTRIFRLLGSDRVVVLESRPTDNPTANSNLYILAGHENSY
Kind of series: Inhibition of GLK (unknown origin).

Series [2] deals with Mitogen-activated protein kinase kinase kinase kinase 1 (Homo sapiens, UniProt Q92918). Kind of series: Inhibition of HPK1 (unknown origin).
Sequence of Mitogen-activated protein kinase kinase kinase kinase 1 (Q92918 whole entry): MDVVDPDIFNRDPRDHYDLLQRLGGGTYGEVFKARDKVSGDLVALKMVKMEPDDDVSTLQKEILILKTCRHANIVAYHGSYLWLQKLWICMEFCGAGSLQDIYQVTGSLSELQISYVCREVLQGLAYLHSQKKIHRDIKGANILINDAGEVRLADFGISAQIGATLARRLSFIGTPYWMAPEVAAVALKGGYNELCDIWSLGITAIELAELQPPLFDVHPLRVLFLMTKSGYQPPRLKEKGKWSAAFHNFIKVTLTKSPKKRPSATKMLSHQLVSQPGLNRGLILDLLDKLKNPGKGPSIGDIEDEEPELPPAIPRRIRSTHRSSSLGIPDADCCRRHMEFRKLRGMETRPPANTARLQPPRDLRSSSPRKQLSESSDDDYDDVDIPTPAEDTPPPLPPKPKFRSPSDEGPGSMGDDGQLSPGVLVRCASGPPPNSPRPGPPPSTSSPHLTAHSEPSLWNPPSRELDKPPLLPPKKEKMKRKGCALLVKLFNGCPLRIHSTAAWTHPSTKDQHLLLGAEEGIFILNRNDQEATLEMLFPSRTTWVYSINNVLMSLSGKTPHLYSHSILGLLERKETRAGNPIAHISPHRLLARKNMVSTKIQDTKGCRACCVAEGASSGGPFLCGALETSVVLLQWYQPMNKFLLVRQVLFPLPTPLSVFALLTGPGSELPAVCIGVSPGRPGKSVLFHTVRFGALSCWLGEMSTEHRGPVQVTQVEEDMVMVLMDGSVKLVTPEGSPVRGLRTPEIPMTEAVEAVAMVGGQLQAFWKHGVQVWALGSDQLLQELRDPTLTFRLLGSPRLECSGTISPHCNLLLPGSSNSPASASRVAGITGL
The target of series [3] is T2, Protein cereblon/Mitogen-activated protein kinase kinase kinase kinase 1 (Homo sapiens, UniProt Q92918+Q96SW2). Kind of series: PROTAC activity at CRBN/HPK1 in human Jurkat cells assessed as maximum degradation incubated for 24 hrs by Western blotting analysis. Format: cell-based.
Target sequence in this assay (Q92918 whole entry, looked up): as the sequence (Q92918 whole entry) above
Target sequence in this assay (Q96SW2 whole entry, looked up): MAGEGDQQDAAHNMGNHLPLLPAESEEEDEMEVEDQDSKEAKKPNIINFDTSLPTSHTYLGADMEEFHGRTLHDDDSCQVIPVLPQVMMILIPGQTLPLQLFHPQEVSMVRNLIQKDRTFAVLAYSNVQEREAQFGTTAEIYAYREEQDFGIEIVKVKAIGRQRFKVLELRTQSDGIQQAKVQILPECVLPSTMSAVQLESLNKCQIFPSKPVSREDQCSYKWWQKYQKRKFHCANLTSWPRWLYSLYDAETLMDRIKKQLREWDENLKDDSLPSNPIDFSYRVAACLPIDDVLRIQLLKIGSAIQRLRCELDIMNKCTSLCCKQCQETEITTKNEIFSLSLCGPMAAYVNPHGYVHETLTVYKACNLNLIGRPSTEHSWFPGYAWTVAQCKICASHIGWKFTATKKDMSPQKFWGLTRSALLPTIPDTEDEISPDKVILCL
In series [4] the target is T2, Protein cereblon/Mitogen-activated protein kinase kinase kinase kinase 1. The series can be described thus: PROTAC activity at CRBN/HPK1 in human Jurkat cells incubated for 24 hrs by Western blotting analysis. Type of series: cell-based. In general terms: In western blotting, separated proteins are transferred to a membrane and probed.
Target sequence in this assay (Q92918 whole entry): as the sequence (Q92918 whole entry) above
Target sequence in this assay (Q96SW2 whole entry): as the sequence (Q96SW2 whole entry, looked up) above
Series [5] is described as follows: Apparent volume of distribution in mouse at 2 mg/kg, iv measured upto 24 hrs by LC-MS analysis. Type of series: ADME, organism-based. The note with it: in vivo.
The nature of series [6]: Half-life in mouse at 2 mg/kg, iv measured upto 24 hrs by LC-MS analysis. Type of series: ADME, organism-based. The note with it: in vivo.
Series [7] is described as follows: Cmax in mouse at 10 mg/kg, po measured upto 24 hrs by LC-MS analysis. Type of series: ADME, organism-based. The note with it: in vivo.
Series [8] in a line: Oral bioavailability in mouse at 10 mg/kg measured upto 24 hrs by LC-MS analysis. The note with it: in vivo. Format: ADME, organism-based.
Series [9] is described as follows: AUC in mouse at 10 mg/kg, po measured upto 24 hrs by LC-MS analysis. Format: ADME, organism-based. Conditions: in vivo.
Series [10] is described as follows: Clearance in mouse at 2 mg/kg, iv measured upto 24 hrs by LC-MS analysis. Format: ADME, organism-based. Conditions: in vivo.
Series [11] can be described thus: AUC in mouse at 2 mg/kg, iv measured upto 24 hrs by LC-MS analysis. Type of series: ADME, organism-based. The note with it: in vivo.
The nature of series [12]: Half-life in mouse at 10 mg/kg measured upto 24 hrs by LC-MS analysis. Type of series: ADME, organism-based. Conditions: in vivo.

This is an account of results in ChEMBL document CHEMBL6092203, “Discovery of Novel PROTAC-Based HPK1 Degraders with High Potency and Selectivity for Cancer Immunotherapy” (J Med Chem, 2024).

In general, IC50 refers to the concentration that inhibits the measured activity by half. By Emax is commonly meant the maximal effect, on the per cent scale that the assay sets. Broadly, the half-life is how long it takes for the measured level to halve. Low values mean fast loss, high ones slow loss. Broadly, the Cmax is the maximum level reached in the sampled fluid or tissue. As usually defined, the bioavailability is the share of a dose that reaches the circulation, judged against a reference dose that is usually intravenous. For orientation: AUC means concentration integrated over time. A word on the clearance: it is the volume of plasma or blood freed of the substance per unit of time.

The structures appear in SMILES notation.

`CCN1CCC(n2cc(-c3c[nH]c4ncc(-c5cnc(OCC6CCOCC6)c(F)c5)nc34)cn2)CC1`: the IC50 in series [1] came out at 63.6 nM; in [2], 2.67 nM.

In the case of `O=C1CCN(c2cc(C(=O)N3CCC(CC4CCN(c5ccc(-c6cnc7[nH]cc(-c8cnn(CCO)c8)c7n6)cn5)CC4)CC3)ccc2Cl)C(=O)N1`, in series [3], the Emax amounted to 84%. The compound further showed a DC50 in [4] of 29 nM.

As for `CCN1CCC(n2cc(-c3c[nH]c4ncc(-c5ccc(N6CCC(OC7CCN(C(=O)c8ccc(Cl)c(N9CCC(=O)NC9=O)c8)CC7)CC6)cc5)nc34)cn2)CC1`, in series [3], the Emax is 52%. The same compound returned a DC50 in series [4] of 386 nM.

In the case of `CCN1CCC(n2cc(-c3c[nH]c4ncc(-c5ccc(N6CCC(F)(CN7CCN(C(=O)c8ccc(Cl)c(N9CCC(=O)NC9=O)c8)CC7)CC6)cc5)nc34)cn2)CC1`, the maximal effect (Emax) in series [3] came to 58%. In [4], this compound gave a DC50 of 230 nM.

Regarding `O=C1CCN(c2cc(C(=O)N3CCC(CC4CCN(c5ccc(-c6cnc7[nH]cc(-c8cnn(CC9CC9)c8)c7n6)cn5)CC4)CC3)ccc2Cl)C(=O)N1`, the maximal response (Emax) in series [3] amounted to 52%. This compound returned a DC50 in [4] of 632 nM.

In the case of `CCN1CCC(n2cc(-c3c[nH]c4ncc(-c5ccc(N6CCC(OC7CCN(C(=O)c8ccc(Cl)c(N9CCC(=O)NC9=O)c8)CC7)CC6)c(F)c5)nc34)cn2)CC1`, the maximum response (Emax) in series [3] is 78%. The same compound had a DC50 in [4] of 7.2 nM.

Regarding `O=C1CCN(c2cc(C(=O)N3CCC(CC4CCN(c5ccc(-c6cnc7[nH]cc(-c8cnn([C@@H]9CCOC9)c8)c7n6)cn5)CC4)CC3)ccc2Cl)C(=O)N1`, in [3], the maximal effect (Emax) stood at 84%. In [4], this compound showed a DC50 of 83 nM.

Consider `Cn1cc(-c2c[nH]c3ncc(-c4ccc(N5CCC(CC6CCN(C(=O)c7ccc(Cl)c(N8CCC(=O)NC8=O)c7)CC6)CC5)nc4)nc23)cn1`, for which, in series [5], the Vz worked out at 0.701 L/kg. Further, the half-life in [6] is 0.98 h; in series [12], 3.35 h. This compound came in with a Cmax in series [7] of 840 ng/mL. Moreover, the bioavailability in series [8] was determined as 17.7%. Moreover, the AUC at 24 h in series [9] amounted to 2210 ng·h/mL; in series [11], 4030 ng·h/mL. The Emax in [3] was found to be 93%; in series [3] (tested as the 2H-labelled form), 89%. This compound had a clearance in [10] of 8.27 mL/min/kg. The compound also displayed a DC50 in series [4] of 9.3 nM.

Turning to `CCN1CCC(n2cc(-c3c[nH]c4ncc(-c5ccc(N6CCC(CN7CCN(C(=O)c8ccc(Cl)c(N9CCC(=O)NC9=O)c8)CC7)CC6)nc5)nc34)cn2)CC1`, the Emax in [3] amounted to 77%. Further, the DC50 in [4] worked out at 2.1 nM.

`CCN1CCC(n2cc(-c3c[nH]c4ncc(-c5ccc(N6CCC(CC7CCN(C(=O)c8ccc(Cl)c(N9CCC(=O)NC9=O)c8)CC7C)CC6)cc5)nc34)cn2)CC1` (stereo not given): in [3], the maximum response (Emax) was 66%. The DC50 in [4] is 23.5 nM.

As to `CC(C)(C#N)n1cc(-c2c[nH]c3ncc(-c4ccc(N5CCC(CC6CCN(C(=O)c7ccc(Cl)c(N8CCC(=O)NC8=O)c7)CC6)CC5)nc4)nc23)cn1`, in series [3], the Emax was determined as 64%. Also, the DC50 in series [4] amounted to 214 nM.

With `CCN1CCC(n2cc(-c3c[nH]c4ncc(-c5ccc(N6CCC(CC7CCN(C(=O)c8ccc(Cl)c(N9CCC(=O)NC9=O)c8)CC7)CC6)nc5)nc34)cn2)CC1`, the Vz in series [5] is 1.03 L/kg. The compound further gave a half-life in series [6] of 4.63 h. The compound also returned a Cmax in [7] of 81.6 ng/mL. The bioavailability in series [8] was 6.67%. Further, the AUC at 24 h amounted to 295 ng·h/mL in series [9] and 874 ng·h/mL in series [11]. The Emax in series [3] was 93%. The compound also showed a clearance in series [10] of 27.5 mL/min/kg. In [4], the DC50 was found to be 1.2 nM.

`[2H]C([2H])([2H])n1cc(-c2c[nH]c3ncc(-c4ccc(N5CCC(CC6CCN(C(=O)c7ccc(Cl)c(N8CCC(=O)NC8=O)c7)CC6)CC5)nc4)nc23)cn1`: the DC50 in series [4] was determined as 12.7 nM.

`CCN1CCC(n2cc(-c3c[nH]c4ncc(-c5ccc(N6CCC(CC7CCN(C(=O)c8ccc(C)c(N9CCC(=O)NC9=O)c8)CC7)CC6)cc5)nc34)cn2)CC1`: in series [3], the maximal effect (Emax) was determined as 53%. This compound also registered a DC50 in [4] of 616 nM.

Consider `CCn1cc(-c2c[nH]c3ncc(-c4ccc(N5CCC(CC6CCN(C(=O)c7ccc(Cl)c(N8CCC(=O)NC8=O)c7)CC6)CC5)nc4)nc23)cn1`, for which the maximal response (Emax) in [3] was 87%. The same compound displayed a DC50 in series [4] of 29.2 nM.

Turning to `O=C1CCN(c2cc(C(=O)N3CCC(CC4CCN(c5ccc(-c6cnc7[nH]cc(-c8cnn(C(F)F)c8)c7n6)cn5)CC4)CC3)ccc2Cl)C(=O)N1`, the Emax in [3] was 67%. Further, in series [4], the DC50 was determined as 23.9 nM.

Regarding `CCN1CCC(n2cc(-c3c[nH]c4ncc(-c5ccc(N6CCC(CC7CCN(C(=O)c8ccc(Cl)c(N9CCC(=O)NC9=O)c8)CC7)CC6)c(F)c5)nc34)cn2)CC1`, the Emax in series [3] turned out to be 63%. The compound also gave a DC50 in series [4] of 176 nM.

Consider `O=C1CCN(c2cc(C(=O)N3CCC(CC4CCN(c5ccc(-c6cnc7[nH]cc(-c8cn[nH]c8)c7n6)cn5)CC4)CC3)ccc2Cl)C(=O)N1`, for which the Emax in series [3] was found to be 92%. The compound further gave a DC50 in [4] of 32.9 nM.

As to `CCN1CCC(n2cc(-c3c[nH]c4ncc(-c5ccc(N6CCC(C)(CN7CCN(C(=O)c8ccc(Cl)c(N9CCC(=O)NC9=O)c8)CC7)CC6)cc5)nc34)cn2)CC1`, in series [3], the maximum response (Emax) was found to be 81%. In series [4], this compound had a DC50 of 52.4 nM.

With `CCN1CCC(n2cc(-c3c[nH]c4ncc(-c5ccc(N6CCC(CC7CCCN(C(=O)c8ccc(Cl)c(N9CCC(=O)NC9=O)c8)CC7)CC6)nc5)nc34)cn2)CC1` (stereo not given), in series [3], the maximal effect (Emax) was 56%. This compound also returned a DC50 in series [4] of 385 nM.

Turning to `O=C1CCN(c2cc(C(=O)N3CCC(CC4CCN(c5ccc(-c6cnc7[nH]cc(-c8cnn(C9CC9)c8)c7n6)cn5)CC4)CC3)ccc2Cl)C(=O)N1`, in series [3], the maximum response (Emax) was 87%. Further, the DC50 in series [4] is 52.3 nM.

On to `CCN1CCC(n2cc(-c3c[nH]c4ncc(-c5cnc(OCCNC(=O)c6ccc(Cl)c(N7CCC(=O)NC7=O)c6)c(C)c5)nc34)cn2)CC1`, for which the Emax in [3] came to 86%. In addition, the DC50 in series [4] was 55 nM.

As for `O=C1CCN(c2cc(C(=O)N3CCC(CC4CCN(c5ccc(-c6cnc7[nH]cc(-c8cnn(CC(F)F)c8)c7n6)cn5)CC4)CC3)ccc2Cl)C(=O)N1`, the Emax in series [3] turned out to be 81%. The DC50 in series [4] amounted to 18.7 nM.

As for `O=C1CCN(c2cc(C(=O)N3CCC(CC4CCN(c5ccc(-c6cnc7[nH]cc(-c8cnn(CCF)c8)c7n6)cn5)CC4)CC3)ccc2Cl)C(=O)N1`, the Vz in series [5] was 0.917 L/kg. The half-life is 2.35 h in series [6] and 3.18 h in [12]. The Cmax in [7] amounted to 4680 ng/mL. In [8], the bioavailability is 25.1%. Besides, the figures for the AUC at 24 h in series [9] and in [11] were 9200 ng·h/mL and 7400 ng·h/mL, respectively. The Emax in series [3] was determined as 78%. Further, the clearance in series [10] was 4.5 mL/min/kg. Besides, in [4], the DC50 was 5.3 nM.

In the case of `COCCn1cc(-c2c[nH]c3ncc(-c4ccc(N5CCC(CC6CCN(C(=O)c7ccc(Cl)c(N8CCC(=O)NC8=O)c7)CC6)CC5)nc4)nc23)cn1`, the maximal effect (Emax) in series [3] was 76%. The same compound displayed a DC50 in series [4] of 30.6 nM.

On to `CCN1CCC(n2cc(-c3c[nH]c4ncc(-c5ccc(N6CCC(OC7CCN(C(=O)c8ccc(Cl)c(N9CCC(=O)NC9=O)c8)CC7)CC6)c(C)c5)nc34)cn2)CC1`, for which the Emax in series [3] stood at 73%. The DC50 in [4] came out at 29.3 nM.
